System: SUM149PT spheroids with HUVEC/MSC, viability
Test: Anticancer human tumor SUM149PT cell line growth inhibition [GQUAD];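 note: spheroids exposed to drugs for seven days before readout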;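 for viability, T/C: percent viability relative to DMSO vehicle control taken as 100%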
Conditions: for IC50: curve of first compound; for viability, T/C: stronger effect = lower value
Summary of the method: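 Multi-cell-type spheroids of tumor cells with HUVEC and mesenchymal stem cells, treated with drug combinations. Concentrations descend in half-log steps from near clinical Cmax, or from 10 microM where Cmax is unknown; viability read-out.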

[1] = second compound 0.0316 µM, first compound 0.0316 µM
[2] = second compound 0.0316 µM, first compound 0.1 µM
[3] = second compound 0.0316 µM, first compound 0.316 µM
[4] = second compound 0.0316 µM, first compound 1 µM
[5] = second compound 0.0316 µM, first compound 3.16 µM
[6] = second compound 0.0316 µM, first compound 10 µM
[7] = second compound 0.1 µM, first compound 0.0316 µM
[8] = second compound 0.1 µM, first compound 0.1 µM
[9] = second compound 0.1 µM, first compound 0.316 µM
[10] = second compound 0.1 µM, first compound 1 µM
[11] = second compound 0.1 µM, first compound 3.16 µM
[12] = second compound 0.1 µM, first compound 10 µM
[13] = second compound 0.316 µM, first compound 0.0316 µM
[14] = second compound 0.316 µM, first compound 0.1 µM
[15] = second compound 0.316 µM, first compound 0.316 µM
[16] = second compound 0.316 µM, first compound 1 µM
[17] = second compound 0.316 µM, first compound 3.16 µM
[18] = second compound 0.316 µM, first compound 10 µM
[19] = second compound 1 µM, first compound 0.0316 µM
[20] = second compound 1 µM, first compound 0.1 µM
[21] = second compound 1 µM, first compound 0.316 µM
[22] = second compound 1 µM, first compound 1 µM
[23] = second compound 1 µM, first compound 3.16 µM
[24] = second compound 1 µM, first compound 10 µM
[25] = second compound 3.16 µM, first compound 0.0316 µM
[26] = second compound 3.16 µM, first compound 0.1 µM
[27] = second compound 3.16 µM, first compound 0.316 µM
[28] = second compound 3.16 µM, first compound 1 µM
[29] = second compound 3.16 µM, first compound 3.16 µM
[30] = second compound 3.16 µM, first compound 10 µM
[31] = second compound 10 µM, first compound 0.0316 µM
[32] = second compound 10 µM, first compound 0.1 µM
[33] = second compound 10 µM, first compound 0.316 µM
[34] = second compound 10 µM, first compound 1 µM
[35] = second compound 10 µM, first compound 3.16 µM
[36] = second compound 10 µM, first compound 10 µM

COc1ncnc(C2CC2)c1-c1ncc2cnn(Cc3ccc(-c4nc(C(F)(F)F)cn4C(C)C)cc3)c2n1 + Cc1[nH]c2ccc(F)cc2c1-c1nc2c3cccnc3c3ncccc3c2[nH]1
IC50 (second compound 0.0316 µM): > 10000 nM | IC50 (second compound 0.1 µM): > 10000 nM | IC50 (second compound 0.316 µM): > 10000 nM | IC50 (second compound 1 µM): > 10000 nM | IC50 (second compound 3.16 µM): > 10000 nM | IC50 (second compound 10 µM): > 10000 nM | viability, T/C [1]: 106% | viability, T/C [2]: 87.2% | viability, T/C [3]: 92.7% | viability, T/C [4]: 92.4% | viability, T/C [5]: 91.6% | viability, T/C [6]: 95.4% | viability, T/C [7]: 103% | viability, T/C [8]: 104% | viability, T/C [9]: 87.2% | viability, T/C [10]: 90.1% | viability, T/C [11]: 91.2% | viability, T/C [12]: 94.3% | viability, T/C [13]: 97.4% | viability, T/C [14]: 97.6% | viability, T/C [15]: 68.9% | viability, T/C [16]: 93% | viability, T/C [17]: 97.8% | viability, T/C [18]: 94.6% | viability, T/C [19]: 98.1% | viability, T/C [20]: 98.1% | viability, T/C [21]: 92.3% | viability, T/C [22]: 92.2% | viability, T/C [23]: 90.1% | viability, T/C [24]: 95.3% | viability, T/C [25]: 97.4% | viability, T/C [26]: 89.6% | viability, T/C [27]: 86.1% | viability, T/C [28]: 82.3% | viability, T/C [29]: 89.4% | viability, T/C [30]: 89.2% | viability, T/C [31]: 91.8% | viability, T/C [32]: 91.4% | viability, T/C [33]: 85.4% | viability, T/C [34]: 83.7% | viability, T/C [35]: 90.8% | viability, T/C [36]: 92.5%

CC(C)n1c(=O)n(C)c2cnc3cc(F)c(-c4ccc(OCCCN5CCCCC5)nc4)cc3c21 + Cc1cnc(CNC(=O)c2c(=O)c3ccc(N4CCCN(C)CC4)nc3n3c2sc2ccccc23)cn1
IC50 (second compound 0.0316 µM): > 10000 nM | IC50 (second compound 0.1 µM): > 10000 nM | IC50 (second compound 0.316 µM): 3880 nM | IC50 (second compound 1 µM): < 31.6 nM | IC50 (second compound 3.16 µM): < 31.6 nM | IC50 (second compound 10 µM): < 31.6 nM | viability, T/C [1]: 56.4% | viability, T/C [2]: 51.5% | viability, T/C [3]: 55.8% | viability, T/C [4]: 59% | viability, T/C [5]: 59.9% | viability, T/C [6]: 48.9% | viability, T/C [7]: 55% | viability, T/C [8]: 55.5% | viability, T/C [9]: 52.6% | viability, T/C [10]: 60.2% | viability, T/C [11]: 64.7% | viability, T/C [12]: 46.2% | viability, T/C [13]: 52% | viability, T/C [14]: 57% | viability, T/C [15]: 52.2% | viability, T/C [16]: 50.9% | viability, T/C [17]: 54.1% | viability, T/C [18]: 35.5% | viability, T/C [19]: 39.6% | viability, T/C [20]: 44.3% | viability, T/C [21]: 48.4% | viability, T/C [22]: 46.4% | viability, T/C [23]: 48.8% | viability, T/C [24]: 32.9% | viability, T/C [25]: 37.7% | viability, T/C [26]: 41.1% | viability, T/C [27]: 42% | viability, T/C [28]: 43.5% | viability, T/C [29]: 39.9% | viability, T/C [30]: 31.5% | viability, T/C [31]: 0.24% | viability, T/C [32]: 8.78% | viability, T/C [33]: 32.2% | viability, T/C [34]: 23% | viability, T/C [35]: 1.78% | viability, T/C [36]: 1.16%

O=C(NO)c1cnc(N2CCN(S(=O)(=O)c3ccc4ccccc4c3)CC2)nc1 + CN(C)c1ccc(Nc2c3ccc(NC(=O)CCN4CCCC4)cc3nc3cc(NC(=O)CCN4CCCC4)ccc23)cc1
IC50 (second compound 0.0316 µM): 325 nM | IC50 (second compound 0.1 µM): 326 nM | IC50 (second compound 0.316 µM): 322 nM | IC50 (second compound 1 µM): 314 nM | IC50 (second compound 3.16 µM): 335 nM | IC50 (second compound 10 µM): 261 nM | viability, T/C [1]: 108% | viability, T/C [2]: 89.4% | viability, T/C [3]: 54.2% | viability, T/C [4]: 0.96% | viability, T/C [5]: 1.31% | viability, T/C [6]: 3.07% | viability, T/C [7]: 116% | viability, T/C [8]: 98.7% | viability, T/C [9]: 54% | viability, T/C [10]: 0.82% | viability, T/C [11]: 1.32% | viability, T/C [12]: 2.31% | viability, T/C [13]: 104% | viability, T/C [14]: 98.1% | viability, T/C [15]: 51% | viability, T/C [16]: 0.47% | viability, T/C [17]: 1.57% | viability, T/C [18]: 1.8% | viability, T/C [19]: 93% | viability, T/C [20]: 96% | viability, T/C [21]: 49.7% | viability, T/C [22]: 0.55% | viability, T/C [23]: 2.23% | viability, T/C [24]: 1.4% | viability, T/C [25]: 86.6% | viability, T/C [26]: 90.9% | viability, T/C [27]: 52.6% | viability, T/C [28]: 0.33% | viability, T/C [29]: 0.17% | viability, T/C [30]: 1.59% | viability, T/C [31]: 87.6% | viability, T/C [32]: 70.2% | viability, T/C [33]: 47.4% | viability, T/C [34]: 0.97% | viability, T/C [35]: 2.45% | viability, T/C [36]: 1.01%

CC1COCCN1c1cc(C2(O)CC3CCC(C2)O3)c2cnn(-c3ccn[nH]3)c2n1 (stereo not given) + CN(C)c1ccc(Nc2c3ccc(NC(=O)CCN4CCCC4)cc3nc3cc(NC(=O)CCN4CCCC4)ccc23)cc1
IC50 (second compound 0.0316 µM): 82.7 nM | IC50 (second compound 0.1 µM): 85.2 nM | IC50 (second compound 0.316 µM): 74.5 nM | IC50 (second compound 1 µM): 65.1 nM | IC50 (second compound 3.16 µM): 56.7 nM | IC50 (second compound 10 µM): 59.9 nM | viability, T/C [1]: 84.2% | viability, T/C [2]: 43.3% | viability, T/C [3]: 27% | viability, T/C [4]: 25.3% | viability, T/C [5]: 31.2% | viability, T/C [6]: 20% | viability, T/C [7]: 77.4% | viability, T/C [8]: 45% | viability, T/C [9]: 31.4% | viability, T/C [10]: 25.1% | viability, T/C [11]: 27.5% | viability, T/C [12]: 18.4% | viability, T/C [13]: 68.8% | viability, T/C [14]: 42.7% | viability, T/C [15]: 30.8% | viability, T/C [16]: 27.8% | viability, T/C [17]: 24.2% | viability, T/C [18]: 19.6% | viability, T/C [19]: 68.2% | viability, T/C [20]: 39.5% | viability, T/C [21]: 23.4% | viability, T/C [22]: 26.6% | viability, T/C [23]: 21.5% | viability, T/C [24]: 19.5% | viability, T/C [25]: 62.3% | viability, T/C [26]: 38.5% | viability, T/C [27]: 24.3% | viability, T/C [28]: 22.6% | viability, T/C [29]: 22.6% | viability, T/C [30]: 15.6% | viability, T/C [31]: 65.8% | viability, T/C [32]: 37.6% | viability, T/C [33]: 23.5% | viability, T/C [34]: 22.9% | viability, T/C [35]: 20.1% | viability, T/C [36]: 15.7%

Nc1ccn(C2OC(CO)C(O)C2(F)F)c(=O)n1 (stereo not given) + Cc1cnc(CNC(=O)c2c(=O)c3ccc(N4CCCN(C)CC4)nc3n3c2sc2ccccc23)cn1
IC50 (second compound 0.0316 µM): 49.4 nM | IC50 (second compound 0.1 µM): < 31.6 nM | IC50 (second compound 0.316 µM): < 31.6 nM | IC50 (second compound 1 µM): < 31.6 nM | IC50 (second compound 3.16 µM): < 31.6 nM | IC50 (second compound 10 µM): < 31.6 nM | viability, T/C [1]: 62.7% | viability, T/C [2]: 29.1% | viability, T/C [3]: 22.4% | viability, T/C [4]: 17.9% | viability, T/C [5]: 17.5% | viability, T/C [6]: 12.2% | viability, T/C [7]: 50% | viability, T/C [8]: 31.6% | viability, T/C [9]: 24.5% | viability, T/C [10]: 18.6% | viability, T/C [11]: 16.1% | viability, T/C [12]: 14.5% | viability, T/C [13]: 45.5% | viability, T/C [14]: 29.5% | viability, T/C [15]: 21.3% | viability, T/C [16]: 17.3% | viability, T/C [17]: 17.8% | viability, T/C [18]: 14% | viability, T/C [19]: 40.4% | viability, T/C [20]: 28.7% | viability, T/C [21]: 20.1% | viability, T/C [22]: 17.2% | viability, T/C [23]: 14.6% | viability, T/C [24]: 14.3% | viability, T/C [25]: 34.8% | viability, T/C [26]: 27.1% | viability, T/C [27]: 19.8% | viability, T/C [28]: 17.1% | viability, T/C [29]: 17.8% | viability, T/C [30]: 14.5% | viability, T/C [31]: 8.05% | viability, T/C [32]: 9.51% | viability, T/C [33]: 2.05% | viability, T/C [34]: 0.66% | viability, T/C [35]: 1.03% | viability, T/C [36]: 2.03%

Reference: PubChem BioAssay AID2060484 (Molecular Pharmacology Branch, DTP, NCI, 2025)
